Consider 28 molecules from patent US11845752B2, “Substituted imidazo[1,5-a]pyrazines for the treatment of hepatitis B” (ALIGOS THERAPEUTICS, INC., priority 2020, dated 2023).

Like-named read-outs stand apart in the source and are kept apart here.

This experiment has as its system HBV. Put plainly: HBV-DNA antiviral assay using HepG2.117 cells (intracellular HBV DNA by qPCR). The experiment is classed as cell-based, HBV genotype D. The following applies: HBV DNA inhibition, 3 days incubation, read-out: EC50. In outline: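 Read-outs: cell-lysate HBV DNA copies by qPCR (interpolated from gBlock standard) and parallel cellular ATP luminescence for CC50, both normalised to 2% DMSO controls and fitted by non-linear regression. HepG2.117 Tet-off genotype D HBV cells, induced by doxycycline removal, exposed 3 days to 4-fold serial dilutions.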
In general terms: In qPCR the cycle at which signal appears reflects the starting amount.

The mark [1] stands for this setting: Hepatitis B virus, HepG2.117, 72 h.

With `CC1Cn2c(c(C(=O)NCc3c(F)cccc3Cl)n(-c3ccc(N4CC5(CN(C)C5)C4)cc3)c2=O)CN1C(=O)c1ccc(Br)c(C(F)(F)F)c1` (single isomer, unassigned) [Compound 106b], the EC50 lay in the range of 50 to 500 nM. Regarding `C[C@H]1Cn2c(c(C(=O)NCc3ccccc3-c3ncccn3)n(-c3ccc4c(cnn4C[C@@H](O)C(F)(F)F)c3)c2=O)CN1C(=O)c1ccc(Br)c(C(F)(F)F)c1` (mixture of isomers) [Compound 101b, (6SR)-7-[4-bromo-3-(trifluoromethyl)benzoyl]-6-methyl-3-oxo-N-[(2-pyrimidin-2-ylphenyl)methyl]-2-[1-[(2R)-3,3,3-trifluoro-2-hydroxy-propyl]indazol-5-yl]-6,8-dihydro-5H-imidazo[1,5-a]pyrazine-1-carboxamide], the EC50 under setting [1] was under 50 nM. Same read-out and setting: the same measure for `CC1Cn2c(c(C(=O)NCc3ccccc3-c3cccnn3)n(-c3ccc(OC[C@H](C)O)cc3)c2=O)CN1C(=O)c1ccc(Br)c(C(F)(F)F)c1` (single isomer, unassigned) [Compound 57a]: 50 to 500 nM. Turning to `CC1Cn2c(c(C(=O)NCc3ccccc3-c3ncccn3)n(-c3ccc(N4CCN(C)CC4)cc3)c2=O)CN1C(=O)c1ccc(Br)c(Cl)c1` (single isomer, unassigned) [Compound 21b], the EC50 was 50 to 500 nM. Turning to `Cc1nnc(-c2ccccc2CNC(=O)c2c3n(c(=O)n2-c2ccc4oc(C)nc4c2)CC(C)N(C(=O)c2ccc(Br)c(Cl)c2)C3)o1` (single isomer, unassigned) [Compound 53a], under setting [1], the EC50 is 50 to 500 nM.

Turning to `CC1Cn2c(c(C(=O)NCc3ccccc3-c3ccccn3)n(-c3ccc(OC4CC4)cc3)c2=O)CN1C(=O)c1ccc(Br)c(C(F)(F)F)c1` (single isomer, unassigned) [Compound 34a], the EC50 under setting [1] is under 50 nM. For `CC1Cn2c(c(C(=O)NCc3c(F)cccc3-c3cccnn3)n(-c3ccc(OC4CC4)cc3)c2=O)CN1C(=O)c1ccc(Br)c(C(F)(F)F)c1` (single isomer, unassigned) [Compound 50a], under setting [1], the EC50 is 50 to 500 nM. Turning to `O=C(NCc1ccccc1-c1ncccn1)c1c2n(c(=O)n1-c1ccc(OC3CC3)cc1)CC(CN1CCOCC1)N(C(=O)c1ccc(Br)c(C(F)(F)F)c1)C2` (single isomer, unassigned) [Compound 132a], under setting [1], the EC50 is 500 to 5000 nM. As to `CC1Cn2c(c(C(=O)NCc3c(F)cccc3-c3ccncn3)n(-c3ccc(OC4CC4)cc3)c2=O)CN1C(=O)c1ccc(Br)c(Cl)c1` (single isomer, unassigned) [Compound 2b, (R*)-7-(4-bromo-3-chlorobenzoyl)-2-(4-cyclopropoxyphenyl)-N-(2-fluoro-6-(pyrimidin-4-yl)benzyl)-6-methyl-3-oxo-2,3,5,6,7,8-hexahydroimidazo[1,5-a]pyrazine-1-carboxamide], the concentration giving a half-maximal response (EC50) is under 50 nM. As for `CC1Cn2c(c(C(=O)NCc3c(F)cccc3-n3cccn3)n(-c3ccc(OC4CC4)cc3)c2=O)CN1C(=O)c1ccc(Br)c(Cl)c1` (single isomer, unassigned) [Compound 24b], the EC50 is under 50 nM.

Take `Cc1cnn(-c2ccccc2CNC(=O)c2c3n(c(=O)n2-c2ccc(OC4CC4)cc2)CC(C)N(C(=O)c2ccc(Br)c(Cl)c2)C3)c1` (single isomer, unassigned) [Compound 6a, 7-(4-bromo-3-chloro-benzoyl)-2-[4-(cyclopropoxy)phenyl]-6-methyl-N-[[2-(4-methylpyrazol-1-yl)phenyl]methyl]-3-oxo-6,8-dihydro-5H-imidazo[1,5-a]pyrazine-1-carboxamide]: the EC50 under setting [1] lay in the range of 50 to 500 nM.

For `CC1Cn2c(c(C(=O)NCc3ccccc3-c3ncccn3)n(-c3ccc(N4CCN(C)CC4)cc3)c2=O)CN1C(=O)c1ccc(Br)c(Cl)c1` (single isomer, unassigned) [Compound 21a], the EC50 under setting [1] is under 50 nM. In the case of `CC1Cn2c(c(C(=O)NCc3ccccc3-c3ncccn3)n(-c3ccc4c(c3)nnn4CC(F)(F)F)c2=O)CN1C(=O)c1ccc(Br)c(C(F)(F)F)c1` (single isomer, unassigned) [Compound 103b], the half-maximal effective concentration (EC50) was under 50 nM. In the case of `CC1Cn2c(c(C(=O)NCc3ccccc3-c3ccccn3)n(-c3ccc(OC[C@@H](O)C(F)(F)F)cc3)c2=O)CN1C(=O)c1ccc(Br)c(C(F)(F)F)c1` (single isomer, unassigned) [Compound 68a], under setting [1], the EC50 was under 50 nM.

As for `C[C@@H]1Cn2c(c(C(=O)NCc3ccccc3-c3cccnn3)n(-c3ccc(OC[C@H](O)C(F)(F)F)cc3)c2=O)CN1C(=O)c1ccc(Br)c(C(F)(F)F)c1` (mixture of isomers) [Compound 67a, (6RS)-7-[4-bromo-3-(trifluoromethyl)benzoyl]-6-methyl-3-oxo-N-[(2-pyridazin-3-ylphenyl)methyl]-2-[4-[(2S)-3,3,3-trifluoro-2-hydroxy-propoxy]phenyl]-6,8-dihydro-5H-imidazo[1,5-a]pyrazine-1-carboxamide], the EC50 under setting [1] fell in the range of 50 to 500 nM. Turning to `C[C@H]1Cn2c(c(C(=O)NCc3ccccc3-c3ncccn3)n(-c3ccc4nn(C[C@H](O)C(F)(F)F)cc4c3)c2=O)CN1C(=O)c1ccc(Br)c(C(F)(F)F)c1` (mixture of isomers) [Compound 107b, (6SR)-7-[4-bromo-3-(trifluoromethyl)benzoyl]-6-methyl-3-oxo-N-[(2-pyrimidin-2-ylphenyl)methyl]-2-[2-[(2S)-3,3,3-trifluoro-2-hydroxy-propyl]indazol-5-yl]-6,8-dihydro-5H-imidazo[1,5-a]pyrazine-1-carboxamide], under setting [1], the EC50 lay in the range of 50 to 500 nM.

Regarding `C[C@H]1Cn2c(c(C(=O)NCc3ccccc3-c3ncccn3)n(-c3ccc4c(cnn4C[C@H](O)C(F)(F)F)c3)c2=O)CN1C(=O)c1ccc(Br)c(C(F)(F)F)c1` (mixture of isomers) [Compound 102b, (6SR)-7-[4-bromo-3-(trifluoromethyl)benzoyl]-6-methyl-3-oxo-N-[(2-pyrimidin-2-ylphenyl)methyl]-2-[1-[(2S)-3,3,3-trifluoro-2-hydroxy-propyl]indazol-5-yl]-6,8-dihydro-5H-imidazo[1,5-a]pyrazine-1-carboxamide], the EC50 under setting [1] is under 50 nM. Regarding `CC1Cn2c(c(C(=O)NCc3ccccc3-c3ncccn3)n(-c3ccc(OCC4(O)CC4)cc3)c2=O)CN1C(=O)c1ccc(Br)c(C(F)(F)F)c1` (single isomer, unassigned) [Compound 81a], the EC50 under setting [1] fell in the range of 50 to 500 nM. Turning to `CNc1nc2cc(-n3c(C(=O)NCc4ccccc4)c4n(c3=O)CCN(C(=O)c3ccc(Br)c(Cl)c3)C4)ccc2o1` [Compound 127, N-benzyl-7-(4-bromo-3-chloro-benzoyl)-2-[2-(methylamino)-1,3-benzoxazol-5-yl]-3-oxo-6,8-dihydro-5H-imidazo[1,5-a]pyrazine-1-carboxamide], the EC50 under setting [1] is 500 to 5000 nM. Consider `CC1Cn2c(c(C(=O)NCc3c(F)cccc3-c3cccc(N)n3)n(-c3ccc(OC4CC4)cc3)c2=O)CN1C(=O)c1ccc(Br)c(C(F)(F)F)c1` (single isomer, unassigned) [Compound 36b], for which the EC50 is under 50 nM. As for `CC1Cn2c(c(C(=O)NCc3ccccc3-c3ccncn3)n(-c3ccc(OC4CC4)cc3)c2=O)CN1C(=O)c1ccc(Br)c(Cl)c1` (single isomer, unassigned) [Compound 9a, 7-(4-bromo-3-chloro-benzoyl)-2-[4-(cyclopropoxy)phenyl]-6-methyl-3-oxo-N-[(2-pyrimidin-4-ylphenyl)methyl]-6,8-dihydro-5H-imidazo[1,5-a]pyrazine-1-carboxamide], the concentration giving a half-maximal response (EC50) under setting [1] lay in the range of 50 to 500 nM. As to `CC1Cn2c(c(C(=O)NCc3ccccc3-c3ccccn3)n(-c3ccc(N4CC5(CN(C)C5)C4)cc3)c2=O)CN1C(=O)c1ccc(Br)c(C(F)(F)F)c1` (single isomer, unassigned) [Compound 77a], under setting [1], the EC50 is under 50 nM. For the molecule `CC1Cn2c(c(C(=O)NCc3ccccc3-c3cc(N)ncn3)n(-c3ccc(OC4CC4)cc3)c2=O)CN1C(=O)c1ccc(Br)c(Cl)c1` (single isomer, unassigned) [Compound 8b, N-[[2-(6-aminopyrimidin-4-yl)phenyl]methyl]-7-(4-bromo-3-chloro-benzoyl)-2-[4-(cyclopropoxy)phenyl]-6-methyl-3-oxo-6,8-dihydro-5H-imidazo[1,5-a]pyrazine-1-carboxamide], the EC50 is under 50 nM. Take `C[C@@H](O)COc1ccc(-n2c(C(=O)NCc3ccccc3-c3ccccn3)c3n(c2=O)C[C@H](C)N(C(=O)c2ccc(Br)c(C(F)(F)F)c2)C3)cc1` (mixture of isomers) [Compound 60b, (6SR)-7-[4-bromo-3-(trifluoromethyl)benzoyl]-2-[4-[(2R)-2-hydroxypropoxy]phenyl]-6-methyl-3-oxo-N-[[2-(2-pyridyl)phenyl]methyl]-6,8-dihydro-5H-imidazo[1,5-a]pyrazine-1-carboxamide]: under setting [1], the EC50 is under 50 nM. For the molecule `CNc1cc(-c2ccccc2CNC(=O)c2c3n(c(=O)n2-c2ccc(OC4CC4)cc2)CC(C)N(C(=O)c2ccc(Br)c(C(F)(F)F)c2)C3)ncn1` (single isomer, unassigned) [Compound 40a], the EC50 under setting [1] is under 50 nM. Turning to `CCC(=O)COc1ccc(-n2c(C(=O)NCc3ccccc3-c3ncccn3)c3n(c2=O)CC(C)N(C(=O)c2ccc(Br)c(C(F)(F)F)c2)C3)cc1` (single isomer, unassigned) [Compound 70b], the EC50 is under 50 nM. Turning to `CC1Cn2c(c(C(=O)NCc3ccccc3-c3cccnn3)n(-c3ccc(OC[C@@H](C)O)cc3)c2=O)CN1C(=O)c1ccc(Br)c(C(F)(F)F)c1` (single isomer, unassigned) [Compound 56a], the EC50 was 500 to 5000 nM. Turning to `C[C@H](O)COc1ccc(-n2c(C(=O)NCc3ccccc3-c3ccccn3)c3n(c2=O)C[C@@H](C)N(C(=O)c2ccc(Br)c(C(F)(F)F)c2)C3)cc1` (mixture of isomers) [Compound 61a, (6RS)-7-[4-bromo-3-(trifluoromethyl)benzoyl]-2-[4-[(2S)-2-hydroxypropoxy]phenyl]-6-methyl-3-oxo-N-[[2-(2-pyridyl)phenyl]methyl]-6,8-dihydro-5H-imidazo[1,5-a]pyrazine-1-carboxamide], under setting [1], the EC50 was under 50 nM.

One may read the EC50 as the concentration giving half of the maximal effect.
